Measured values from the supplement of paper PMC10307832.

Tests used:
Assay in all cases: relative viability (nuclei count vs DMSO), 5 days (fraction); higher = more cells survive
[1] = test system: CAL-12T
In short: (§1)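 For relative viability, nuclei counts in treated wells were divided by those in vehicle wells. Lung cancer cell lines had been pin-tool dosed in 1536-well plates the day after seeding and cultured for 5 days, then fixed and stained in one step (final 0.05% Triton X-100, 1% formaldehyde, 1 ug/ml Hoechst) and imaged at 4×. Doses were one drug alone or a fixed anchor-drug dose plus five library-drug doses (not always all listed) in √10 steps, and values are duplicate-plate medians.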

[2] = test system: ChaGo-K-1
In short: as §1

[3] = test system: EMC-BAC-2
In short: as §1

[4] = test system: HCC-366
In short: as §1

[5] = test system: HCC-78
In short: as §1

[6] = test system: HOP-62
In short: as §1

[7] = test system: LC-2-ad
In short: as §1

[8] = test system: LK-2
In short: as §1

[9] = test system: NCI-H1355
In short: as §1

[10] = test system: NCI-H1734
In short: as §1

[11] = test system: NCI-H1993
In short: as §1

[12] = test system: NCI-H2009
In short: as §1

[13] = test system: NCI-H2085
In short: as §1

[14] = test system: NCI-H2228
In short: as §1

[15] = test system: NCI-H2347
In short: as §1

[16] = test system: NCI-H2405
In short: as §1

[17] = test system: NCI-H3122
In short: as §1

[18] = test system: NCI-H596
In short: as §1

[19] = test system: NCI-H838
In short: as §1

[20] = test system: PC-14
In short: as §1

[21] = test system: RERF-LC-KJ
In short: as §1

[22] = test system: SK-MES-1
In short: as §1

[23] = test system: SW 1573
In short: as §1

O=c1[nH]c2ccccc2n1C1CCN(CCCC(c2ccc(F)cc2)c2ccc(F)cc2)CC1 [Pimozide] + Cc1nc(Nc2ncc(C(=O)Nc3c(C)cccc3Cl)s2)cc(N2CCN(CCO)CC2)n1 [Dasatinib] (partner 0.075 µM)
relative viability ([1]; first compound 0.08 µM): 0.378
relative viability ([1]; first compound 0.253 µM): 0.404
relative viability ([1]; first compound 0.8 µM): 0.415
relative viability ([1]; first compound 2.53 µM): 0.333
relative viability ([1]; first compound 8 µM): 0.259
relative viability ([2]; first compound 0.08 µM): 0.613
relative viability ([2]; first compound 0.253 µM): 0.586
relative viability ([2]; first compound 0.8 µM): 0.509
relative viability ([2]; first compound 2.53 µM): 0.522
relative viability ([2]; first compound 8 µM): 0.595
relative viability ([3]; first compound 0.08 µM): 0.351
relative viability ([3]; first compound 0.253 µM): 0.274
relative viability ([3]; first compound 0.8 µM): 0.331
relative viability ([3]; first compound 2.53 µM): 0.285
relative viability ([3]; first compound 8 µM): 0.218
relative viability ([4]; first compound 0.08 µM): 0.613
relative viability ([4]; first compound 0.253 µM): 0.644
relative viability ([4]; first compound 0.8 µM): 0.625
relative viability ([4]; first compound 2.53 µM): 0.615
relative viability ([4]; first compound 8 µM): 0.714
relative viability ([5]; first compound 0.08 µM): 0.387
relative viability ([5]; first compound 0.8 µM): 0.327
relative viability ([5]; first compound 2.53 µM): 0.345
relative viability ([5]; first compound 8 µM): 0.373
relative viability ([6]; first compound 0.08 µM): 0.698
relative viability ([6]; first compound 0.253 µM): 0.617
relative viability ([6]; first compound 2.53 µM): 0.685
relative viability ([6]; first compound 8 µM): 0.651
relative viability ([7]; first compound 0.08 µM): 0.571
relative viability ([7]; first compound 0.253 µM): 0.518
relative viability ([7]; first compound 0.8 µM): 0.447
relative viability ([7]; first compound 2.53 µM): 0.548
relative viability ([7]; first compound 8 µM): 0.493
relative viability ([8]; first compound 0.08 µM): 0.33
relative viability ([8]; first compound 0.253 µM): 0.273
relative viability ([8]; first compound 2.53 µM): 0.242
relative viability ([8]; first compound 8 µM): 0.24
relative viability ([9]; first compound 0.08 µM): 0.744
relative viability ([9]; first compound 0.253 µM): 0.722
relative viability ([9]; first compound 0.8 µM): 0.671
relative viability ([9]; first compound 2.53 µM): 0.672
relative viability ([9]; first compound 8 µM): 0.732
relative viability ([10]; first compound 0.08 µM): 0.495
relative viability ([10]; first compound 0.253 µM): 0.454
relative viability ([10]; first compound 2.53 µM): 0.529
relative viability ([10]; first compound 8 µM): 0.493
relative viability ([11]; first compound 0.08 µM): 0.649
relative viability ([11]; first compound 0.253 µM): 0.597
relative viability ([11]; first compound 0.8 µM): 0.464
relative viability ([11]; first compound 2.53 µM): 0.664
relative viability ([11]; first compound 8 µM): 0.332
relative viability ([12]; first compound 0.08 µM): 0.307
relative viability ([12]; first compound 0.253 µM): 0.326
relative viability ([12]; first compound 0.8 µM): 0.328
relative viability ([12]; first compound 2.53 µM): 0.214
relative viability ([12]; first compound 8 µM): 0.188
relative viability ([13]; first compound 0.08 µM): 0.209
relative viability ([13]; first compound 0.253 µM): 0.249
relative viability ([13]; first compound 0.8 µM): 0.221
relative viability ([13]; first compound 2.53 µM): 0.232
relative viability ([13]; first compound 8 µM): 0.257
relative viability ([14]; first compound 0.08 µM): 0.524
relative viability ([14]; first compound 0.253 µM): 0.604
relative viability ([14]; first compound 0.8 µM): 0.448
relative viability ([14]; first compound 2.53 µM): 0.345
relative viability ([14]; first compound 8 µM): 0.315
relative viability ([15]; first compound 0.253 µM): 0.34
relative viability ([15]; first compound 0.8 µM): 0.295
relative viability ([15]; first compound 2.53 µM): 0.349
relative viability ([15]; first compound 8 µM): 0.343
relative viability ([16]; first compound 0.08 µM): 0.219
relative viability ([16]; first compound 0.253 µM): 0.228
relative viability ([16]; first compound 0.8 µM): 0.198
relative viability ([16]; first compound 2.53 µM): 0.187
relative viability ([16]; first compound 8 µM): 0.188
relative viability ([17]; first compound 0.08 µM): 0.885
relative viability ([17]; first compound 0.253 µM): 0.861
relative viability ([17]; first compound 0.8 µM): 0.385
relative viability ([17]; first compound 2.53 µM): 0.851
relative viability ([17]; first compound 8 µM): 0.688
relative viability ([18]; first compound 0.08 µM): 0.565
relative viability ([18]; first compound 0.253 µM): 0.572
relative viability ([18]; first compound 0.8 µM): 0.624
relative viability ([18]; first compound 2.53 µM): 0.553
relative viability ([18]; first compound 8 µM): 0.662
relative viability ([19]; first compound 0.08 µM): 0.266
relative viability ([19]; first compound 0.253 µM): 0.282
relative viability ([19]; first compound 0.8 µM): 0.225
relative viability ([19]; first compound 2.53 µM): 0.302
relative viability ([19]; first compound 8 µM): 0.279
relative viability ([20]; first compound 0.08 µM): 0.027
relative viability ([20]; first compound 0.253 µM): 0.241
relative viability ([20]; first compound 0.8 µM): 0.272
relative viability ([20]; first compound 2.53 µM): 0.306
relative viability ([20]; first compound 8 µM): 0.18
relative viability ([21]; first compound 0.08 µM): 0.775
relative viability ([21]; first compound 0.253 µM): 0.611
relative viability ([21]; first compound 0.8 µM): 0.696
relative viability ([21]; first compound 2.53 µM): 0.66
relative viability ([21]; first compound 8 µM): 0.501
relative viability ([22]; first compound 0.08 µM): 0.313
relative viability ([22]; first compound 0.253 µM): 0.41
relative viability ([22]; first compound 0.8 µM): 0.358
relative viability ([22]; first compound 2.53 µM): 0.325
relative viability ([22]; first compound 8 µM): 0.336
relative viability ([23]; first compound 0.08 µM): 0.522
relative viability ([23]; first compound 0.253 µM): 0.447
relative viability ([23]; first compound 0.8 µM): 0.5
relative viability ([23]; first compound 2.53 µM): 0.437
relative viability ([23]; first compound 8 µM): 0.692
